# Assay results published in ChEMBL document CHEMBL5113546, “Novel SMARCA Degraders for Treating Cancer” (ACS Med Chem Lett, 2022).
# Target: SWI/SNF-related matrix-associated actin-dependent regulator of chromatin subfamily A member 2 (Homo sapiens, UniProt P51531)
# Assay: Induction of SMARCA2 degradation in human A549 cells measured after 24 hrs by MSD assay
# Type: cell-based
# Chain of SWI/SNF-related matrix-associated actin-dependent regulator of chromatin subfamily A member 2 (P51531 whole entry): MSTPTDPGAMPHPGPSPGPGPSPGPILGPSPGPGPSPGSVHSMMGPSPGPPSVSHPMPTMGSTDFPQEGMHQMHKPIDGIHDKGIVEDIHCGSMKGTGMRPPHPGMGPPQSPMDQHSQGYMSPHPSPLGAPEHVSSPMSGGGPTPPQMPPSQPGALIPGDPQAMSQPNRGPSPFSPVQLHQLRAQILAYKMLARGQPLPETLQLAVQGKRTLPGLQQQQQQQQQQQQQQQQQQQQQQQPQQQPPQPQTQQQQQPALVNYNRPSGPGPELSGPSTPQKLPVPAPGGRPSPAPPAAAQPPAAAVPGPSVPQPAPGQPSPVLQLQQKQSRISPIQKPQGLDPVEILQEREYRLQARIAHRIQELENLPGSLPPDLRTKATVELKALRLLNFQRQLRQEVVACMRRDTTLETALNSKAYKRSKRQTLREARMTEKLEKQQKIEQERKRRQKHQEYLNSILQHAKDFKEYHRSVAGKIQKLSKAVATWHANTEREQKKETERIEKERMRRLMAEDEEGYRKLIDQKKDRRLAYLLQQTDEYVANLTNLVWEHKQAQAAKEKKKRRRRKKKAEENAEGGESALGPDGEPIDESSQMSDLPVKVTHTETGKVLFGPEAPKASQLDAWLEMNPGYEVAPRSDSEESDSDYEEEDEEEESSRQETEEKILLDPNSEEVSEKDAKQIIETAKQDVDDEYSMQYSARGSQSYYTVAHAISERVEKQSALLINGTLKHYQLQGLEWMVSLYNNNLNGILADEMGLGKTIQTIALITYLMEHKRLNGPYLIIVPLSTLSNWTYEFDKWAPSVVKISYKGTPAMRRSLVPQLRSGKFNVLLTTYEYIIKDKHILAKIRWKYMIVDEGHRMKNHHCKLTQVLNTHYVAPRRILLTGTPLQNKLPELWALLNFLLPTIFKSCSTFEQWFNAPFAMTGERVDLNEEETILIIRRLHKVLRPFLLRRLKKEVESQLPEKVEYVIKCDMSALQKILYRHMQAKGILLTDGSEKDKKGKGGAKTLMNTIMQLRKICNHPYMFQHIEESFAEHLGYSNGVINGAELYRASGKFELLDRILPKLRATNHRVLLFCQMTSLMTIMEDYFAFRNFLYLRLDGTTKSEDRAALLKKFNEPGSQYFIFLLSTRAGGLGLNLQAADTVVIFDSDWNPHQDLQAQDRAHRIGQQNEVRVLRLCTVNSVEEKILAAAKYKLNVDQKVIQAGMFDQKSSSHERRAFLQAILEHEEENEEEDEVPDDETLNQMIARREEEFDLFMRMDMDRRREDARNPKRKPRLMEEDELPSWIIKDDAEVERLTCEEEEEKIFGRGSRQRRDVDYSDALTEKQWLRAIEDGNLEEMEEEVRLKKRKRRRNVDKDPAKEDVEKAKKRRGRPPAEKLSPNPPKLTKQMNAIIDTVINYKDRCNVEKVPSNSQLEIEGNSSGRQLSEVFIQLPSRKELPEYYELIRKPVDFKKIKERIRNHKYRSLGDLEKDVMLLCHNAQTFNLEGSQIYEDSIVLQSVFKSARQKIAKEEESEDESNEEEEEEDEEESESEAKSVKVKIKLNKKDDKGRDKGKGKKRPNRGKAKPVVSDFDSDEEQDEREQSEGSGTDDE
row,SMILES,DC50
1,Cc1ncsc1-c1ccc(CNC(=O)[C@@H]2C[C@@H](O)CN2C(=O)C(c2cc(OCCCCN3CCC(c4cnc(N5C6CCC5CN(c5cc(-c7ccccc7O)nnc5N)C6)nc4)CC3)no2)C(C)C)cc1 (stereo partly specified),< 100 nM
2,Cc1ncsc1-c1ccc([C@H](C)NC(=O)[C@@H]2C[C@@H](O)CN2C(=O)[C@@H](NC(=O)[C@H]2CC3(C2)C[C@H](N2CCC(c4cnc(N5C6CCC5CN(c5cc(-c7ccccc7O)nnc5N)C6)nc4)CC2)C3)C(C)(C)C)cc1 (stereo partly specified),< 100 nM
3,Cc1ncsc1-c1ccc(CNC(=O)[C@@H]2C[C@@H](O)CN2C(=O)[C@@H](NC(=O)[C@H]2CC3(C2)C[C@H](N2CCN(c4cnc(N5C6CCC5CN(c5cc(-c7ccccc7O)nnc5N)C6)nc4)CC2)C3)C(C)(C)C)cc1 (stereo partly specified),< 100 nM
4,Cc1ncsc1-c1ccc(CNC(=O)[C@@H]2C[C@@H](O)CN2C(=O)C(c2cc(OCCN3CCC(c4cnc(N5C6CCC5CN(c5cc(-c7ccccc7O)nnc5N)C6)nc4)CC3)no2)C(C)C)cc1 (stereo partly specified),< 100 nM
5,Cc1ncsc1-c1ccc(CNC(=O)[C@@H]2C[C@@H](O)CN2C(=O)[C@@H](NC(=O)[C@H]2CC3(CC[C@H](N4CCC(c5cnc(N6C7CCC6CN(c6cc(-c8ccccc8O)nnc6N)C7)nc5)CC4)CC3)C2)C(C)(C)C)cc1 (stereo partly specified),< 100 nM
6,Cc1ncsc1-c1ccc(C2(NC(=O)[C@@H]3C[C@@H](O)CN3C(=O)[C@@H](NC(=O)[C@H]3CC4(C3)C[C@H](N3CCC(c5cnc(N6C7CCC6CN(c6cc(-c8ccccc8O)nnc6N)C7)nc5)CC3)C4)C(C)(C)C)CC2)cc1 (stereo partly specified),< 100 nM
